The record followed here is paper PMC8351955, “Targeting Mycobacterium tuberculosis response to environmental cues for the development of effective antitubercular drugs” (PLoS Biology, 2021).

Structures are written as SMILES. Like-named read-outs stand apart in the source and are kept apart here.

Experiment [1] concerns CDC1551(rv2390c′::GFP) reporter Mtb strain, response to high [Cl−]. Briefly: microbe, parasite or virus in culture. It is filed as cell-based, Mycobacterium tuberculosis. To be noted: Mycobacterium tuberculosis, 144 h; for activity at 20 µM: read-out: rv2390c'::GFP validation assay NPA% at 20 µM compound.
The test system of experiment [2] is CDC1551(rv1405c′::GFP) reporter Mtb strain. Briefly: microbe, parasite or virus in culture. The format is cell-based, Mycobacterium tuberculosis. To be noted: Mycobacterium tuberculosis; for activity at 10 µM: read-out: rv1405c'::GFP secondary assay NPA% at 10 µM compound; for activity at 20 µM: read-out: rv1405c'::GFP secondary assay NPA% at 20 µM compound.
[3] abbreviates: pH 6.4, […], DMSO positive control = 100%, read-out: Primary screen rv2390c'::GFP NPA%.
Setting [4] is: 10 µM, pH 6.4, 250 mM NaCl, 6 days, read-out: rv2390c'::GFP validation assay NPA% at 10 µM compound.

For `COc1ccc2c(CC(=O)Nc3nc(CN4CCCCC4)cs3)coc2c1` [RU-0204291, COC1=CC2=C(C=C1)C(CC(=O)NC1=NC(CN3CCCCC3)=CS1)=CO2], the activity at 10 µM in experiment [1] (setting [3]) worked out at 167%; in experiment [1] (setting [4]) it was 99.2 ± 12.7%; in experiment [2], 104 ± 2.6%. For the same molecule, the activity at 20 µM in experiment [1] (pH 6.4, 250 mM NaCl, 6 days) was determined as 142 ± 13%; in experiment [2] it was 135 ± 13.2%.
With `Cc1cc(C(C)C(=O)Nc2ccc(N3CCN(C)CC3)cn2)c(C)o1` (stereo not shown) [RU-0182922, CC(C(=O)NC1=NC=C(C=C1)N1CCN(C)CC1)C1=C(C)OC(C)=C1], the activity at 10 µM was 174% in experiment [1] (setting [3]), 139 ± 18.3% in experiment [1] (setting [4]) and 96.9 ± 6.7% in experiment [2]. For the same molecule, the activity at 20 µM in experiment [1] (pH 6.4, 250 mM NaCl, 6 days) is 164 ± 13.6%; in experiment [2], 106 ± 5.2%.
As to `Cc1cc(NS(=O)(=O)Cc2cccc(C(F)(F)F)c2)n(C)n1` [RU-0274447, CN1N=C(C)C=C1NS(=O)(=O)CC1=CC(=CC=C1)C(F)(F)F], the values for the activity at 10 µM in experiment [1] (setting [3]), in experiment [1] (setting [4]) and in experiment [2] were 186%, 171 ± 11.2% and 303 ± 7.6%, respectively. In addition, the activity at 20 µM in experiment [1] (pH 6.4, 250 mM NaCl, 6 days) came to 252 ± 10.1%; in experiment [2] it was 619 ± 9.2%.
Take `C(=C\c1ccccc1)/Cn1nnc(-c2cccs2)n1` [RU-0207924, C(\C=C\C1=CC=CC=C1)N1N=NC(=N1)C1=CC=CS1]: the activity at 10 µM in experiment [1] (setting [3]) came to 152%; in experiment [1] (setting [4]) it was 114 ± 1.5%; in experiment [2] it was 97.4 ± 8.8%. In addition, the activity at 20 µM in experiment [1] (pH 6.4, 250 mM NaCl, 6 days) worked out at 137 ± 4%; in experiment [2] it was 125 ± 16.3%.
In the case of `COc1ccc(F)c(-c2cc3c(cc2C(N)=O)OCO3)c1` [RU-0251853, COC1=CC(=C(F)C=C1)C1=CC2=C(OCO2)C=C1C(N)=O], the activity at 10 µM turned out to be 182% in experiment [1] (setting [3]), 147 ± 6.1% in experiment [1] (setting [4]) and 147 ± 32% in experiment [2]. The activity at 20 µM in experiment [1] (pH 6.4, 250 mM NaCl, 6 days) is 276 ± 8%; in experiment [2], 296 ± 65.4%.
With `COC(=O)Oc1sc2nc3ccccc3nc2c1N` [RU-0193917, COC(=O)OC1=C(N)C2=C(S1)N=C1C=CC=CC1=N2], the results for the activity at 10 µM in experiment [1] (setting [3]), in experiment [1] (setting [4]) and in experiment [2] were 158%, 166 ± 15.7% and 111 ± 4%, respectively. The activity at 20 µM in experiment [1] (pH 6.4, 250 mM NaCl, 6 days) amounted to 184 ± 27%; in experiment [2] it was 179 ± 15%.
In the same order, the values of `COc1ccc(COc2ccccc2NC(C)=O)cc1Br` [RU-0277875, COC1=C(Br)C=C(COC2=C(NC(C)=O)C=CC=C2)C=C1] are 175%, 138 ± 7.5%, 139 ± 5.6%, 229 ± 11.9% and 199 ± 12.2%.
In the same order, the values of `CCc1ccc(NC(=O)C2(N(C)C)Cc3ccccc3C2)cc1` [RU-0276433, CCC1=CC=C(NC(=O)C2(CC3=C(C2)C=CC=C3)N(C)C)C=C1] are 157%, 124 ± 10.1%, 171 ± 9.3%, 186 ± 4.9% and 312 ± 25.3%.
For `COc1ccc2c(c1)OCC(C(=O)C(C#N)c1nc3ccccc3o1)C2` (stereo not shown) [RU-0202553, COC1=CC2=C(CC(CO2)C(=O)C(C#N)C2=NC3=C(O2)C=CC=C3)C=C1], in that order: 189%, 131 ± 13.6%, 136 ± 12.3%, 249 ± 22.5% and 402 ± 46.5%.
For `CC(=O)N1N=C(c2c(-c3ccccc3)c3ccc(C)cc3[nH]c2=O)CC1c1ccco1` (stereo not shown) [RU-0204568, CC(=O)N1N=C(CC1C1=CC=CO1)C1=C(C2=CC=CC=C2)C2=C(NC1=O)C=C(C)C=C2], the activity at 10 µM is 162% in experiment [1] (setting [3]), 125 ± 9.5% in experiment [1] (setting [4]) and 102 ± 12.9% in experiment [2]. In addition, the activity at 20 µM in experiment [1] (pH 6.4, 250 mM NaCl, 6 days) is 198 ± 21%; in experiment [2], 116 ± 27.3%.
In the same order, the values of `CC1(C)CC2CC(C)(CN2CC(O)COc2ccc(F)cc2Cl)C1` (stereo not shown) [RU-0218667, CC12CC(CC(C)(C)C1)N(CC(O)COC1=C(Cl)C=C(F)C=C1)C2] are 154%, 118 ± 1.5%, 129 ± 4.5%, 173 ± 5.5% and 233 ± 4.2%.
